Reference: US5610174A, “Use of α1A -selective adrenoceptor agonists for the treatment of urinary incontinence” (priority 1995, dated 1997)
Like-named read-outs stand apart in the source and are kept apart here.

Experiments:
human α2A adrenoceptor = target: T1, human α2A adrenoceptor (Homo sapiens, UniProt P08913); test: Inhibition of forskolin stimulated adenylyl cyclase, α2A; format: cell-based; settings: for Emax: read-out: intrinsic activity (i.a.) α2A
T1 construct: expressed in transfected cells; host or cells: LM(tk-)
T1 sequence (P08913 1-465): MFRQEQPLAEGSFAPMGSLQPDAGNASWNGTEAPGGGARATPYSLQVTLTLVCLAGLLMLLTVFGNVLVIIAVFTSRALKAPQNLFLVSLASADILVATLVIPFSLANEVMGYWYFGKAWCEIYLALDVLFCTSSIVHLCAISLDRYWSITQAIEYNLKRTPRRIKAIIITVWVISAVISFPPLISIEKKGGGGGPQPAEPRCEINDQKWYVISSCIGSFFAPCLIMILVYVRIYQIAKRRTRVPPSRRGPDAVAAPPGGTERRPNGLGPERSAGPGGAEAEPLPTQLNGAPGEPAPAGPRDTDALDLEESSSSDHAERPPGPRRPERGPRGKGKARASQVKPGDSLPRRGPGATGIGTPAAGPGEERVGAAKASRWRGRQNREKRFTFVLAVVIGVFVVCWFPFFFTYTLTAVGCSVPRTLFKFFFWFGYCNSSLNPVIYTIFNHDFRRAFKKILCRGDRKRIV
Description: α2 -Adrenoceptor-Mediated Inhibition of Forskolin Stimulated Adenylyl Cyclase
The agonist activity of test compounds was assayed by measuring their ability to inhibit adenylyl cyclase in cells stably transfected with each of the three cloned human α2 -adrenoceptors. LM(tk-) cells expressing the α2A - or the α2C -, as well as Y1 cells expressing the α2B -adrenoceptor were used. […] The formation of cyclic AMP was measured in cultures incubated with DMEM containing 1 mM theophylline. […] The data from concentration-response curves was fitted to a four-parameter logistic equation, by non-linear regression analysis, to determine the pEC50 and intrinsic activity.

[1] = target: T2, human dopamine D5 receptor (Homo sapiens, UniProt P21918); test: Radioligand binding at human dopamine D5
T2 construct: expressed in transfected cells
T2 sequence (P21918 whole entry): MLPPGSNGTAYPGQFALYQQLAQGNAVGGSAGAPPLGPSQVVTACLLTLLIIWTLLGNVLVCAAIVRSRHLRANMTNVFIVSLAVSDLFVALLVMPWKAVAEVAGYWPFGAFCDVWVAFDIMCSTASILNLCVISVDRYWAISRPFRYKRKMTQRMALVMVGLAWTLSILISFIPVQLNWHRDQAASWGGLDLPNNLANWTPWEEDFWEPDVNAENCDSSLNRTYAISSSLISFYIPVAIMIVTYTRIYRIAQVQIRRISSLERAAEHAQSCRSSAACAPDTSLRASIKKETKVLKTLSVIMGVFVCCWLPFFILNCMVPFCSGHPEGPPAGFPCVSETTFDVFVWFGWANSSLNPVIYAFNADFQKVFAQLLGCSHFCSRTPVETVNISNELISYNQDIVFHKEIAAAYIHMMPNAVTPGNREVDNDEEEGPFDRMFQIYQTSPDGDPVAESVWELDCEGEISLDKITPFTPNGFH
Description: (§1) Other Dopamine receptors were prepared by known methods. (D1 : Dearry et al., Nature, 347, 72, (1990), deposited with the European Molecular Biological Laboratory (EMBL) Genbank as X55760; D3 : Sokoloff, P. et al., Nature, 347, 146 (1990), deposited with the European Molecular Biological Laboratory (EMBL) Genbank as X53944; D5 : Sunahara, R. K., et al., Nature, 350, 614 (1991), deposited with EMBL Genbank as X58454-HU HD 5DR).

human 5-HT1A receptor = target: T3, human 5-HT1A receptor (Homo sapiens, UniProt P08908); test: Radioligand binding at human 5-HT1A
T3 construct: expressed in transfected cells; host or cells: COS-7, transient (a cell line 5-HT1A-3, ATCC CRL 11889, is also named)
T3 sequence (P08908 1-422): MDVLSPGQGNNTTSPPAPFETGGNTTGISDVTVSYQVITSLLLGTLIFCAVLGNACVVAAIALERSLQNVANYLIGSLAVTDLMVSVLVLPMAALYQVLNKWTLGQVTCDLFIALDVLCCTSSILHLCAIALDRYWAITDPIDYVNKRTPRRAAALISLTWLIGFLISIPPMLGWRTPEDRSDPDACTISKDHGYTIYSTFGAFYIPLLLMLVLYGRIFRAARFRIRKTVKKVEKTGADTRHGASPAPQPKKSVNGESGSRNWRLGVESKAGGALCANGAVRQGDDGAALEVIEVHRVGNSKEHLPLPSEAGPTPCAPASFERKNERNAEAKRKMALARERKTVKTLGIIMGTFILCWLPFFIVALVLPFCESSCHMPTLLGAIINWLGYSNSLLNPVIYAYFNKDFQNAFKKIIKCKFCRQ
Description: The cDNA corresponding to the 5-HT1A receptor open reading frames and variable non-coding 5'- and 3'-regions, was cloned into the eukaryotic expression vector pCEXV-3. These constructs were transfected transiently into COS-7 cells by the DEAE-dextran method, and harvested after 72 hours. Radioligand binding assays were performed as described above for the 5-HT2 receptor, except that [3H]-8-OH-DPAT was used as the radioligand and nonspecific binding was determined by the addition of 10 μM mianserin.

human 5-HT1Dβ receptor = target: T4, human 5-HT1Dβ receptor (Homo sapiens, UniProt P28222); test: Radioligand binding at human 5-HT1Dβ
T4 construct: expressed in transfected cells; host or cells: LM(tk-) clonal cell line, designated Ltk-11, ATCC CRL 10422 (cell lysates)
T4 sequence (P28222 whole entry): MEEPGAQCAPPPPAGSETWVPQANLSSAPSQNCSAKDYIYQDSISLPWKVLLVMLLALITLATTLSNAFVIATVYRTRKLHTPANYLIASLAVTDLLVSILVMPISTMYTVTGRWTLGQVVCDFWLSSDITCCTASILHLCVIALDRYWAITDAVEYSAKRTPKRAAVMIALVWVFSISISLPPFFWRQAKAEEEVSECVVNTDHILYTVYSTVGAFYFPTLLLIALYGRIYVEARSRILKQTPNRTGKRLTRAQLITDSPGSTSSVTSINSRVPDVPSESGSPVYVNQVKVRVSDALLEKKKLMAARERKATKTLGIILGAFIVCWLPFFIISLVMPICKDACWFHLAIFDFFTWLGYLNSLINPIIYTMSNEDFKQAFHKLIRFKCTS
Description: (§2) Human Serotonin Receptors
(§3) 5-HT1Dα, 5-HT1Dβ, 5-HT1E, 5-HT1F, and 5-HT7 Receptors: The cell lysates of LM(tk-) clonal cell line stably transfected with the genes encoding each of these 5-HT receptor-subtypes were prepared as described above. The cell line for the 5-HT1Dαreceptor, designated as Ltk-8-30-84, was deposited on Apr. […] The cell for the 5-HT1Dβ receptor, designated as Ltk-11, was deposited on Apr. […] The cell line for the 5-HT1E receptor, designated 5-HT1E -7, was deposited on Nov. […] The cell line for the 5-HT1F receptor, designated L-5-HT1F, was deposited on Dec. […] The cell line for the 5-HT7 receptor, designated as L-5-HT-4B, was deposited on Oct. […] These preparations were suspended in 50 mM Tris-HCl buffer (pH 7.4 at 37° C.) containing 10 mM MgCl2, 0.2 mM EDTA, 10 μM pargyline, and 0.1% ascorbate. […] Nonspecific binding was determined in the presence of 10 μM serotonin. The bound radioligand was separated by filtration through GF/B filters using a cell harvester.

human 5-HT1F receptor = target: T5, human 5-HT1F receptor (Homo sapiens, UniProt P30939); test: Radioligand binding at human 5-HT1F
T5 construct: expressed in transfected cells; host or cells: LM(tk-) clonal cell line, designated L-5-HT1F, ATCC CRL 10957 (cell lysates)
T5 sequence (P30939 1-366): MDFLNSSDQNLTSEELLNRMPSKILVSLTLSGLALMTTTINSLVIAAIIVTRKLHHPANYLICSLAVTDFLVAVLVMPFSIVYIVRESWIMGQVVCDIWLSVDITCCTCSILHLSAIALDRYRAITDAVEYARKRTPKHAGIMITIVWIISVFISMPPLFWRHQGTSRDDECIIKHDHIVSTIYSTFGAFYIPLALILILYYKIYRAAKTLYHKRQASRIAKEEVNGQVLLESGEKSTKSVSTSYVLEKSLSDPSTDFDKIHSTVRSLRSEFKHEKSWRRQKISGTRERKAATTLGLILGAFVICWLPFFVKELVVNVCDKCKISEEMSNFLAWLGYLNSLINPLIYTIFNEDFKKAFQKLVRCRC
Description: as §2, §3

[2] = target: human dopamine D3 receptor; test: Radioligand binding at human dopamine D3
Description: as §1

`COc1ccc(SC)c2c1C[C@@H]1[C@@H](C2)OCCN1C` (relative stereo) [SDZ NVI-085, (±)-trans-4-Methyl-6-methoxy-9-thiomethoxy-3,4,4a, 5,10,10a-hexahydro-2H-naphtho[2,3-b][1,4]oxazine] gave an EC50 (human α2A adrenoceptor; agonist, inhibition of forskolin stimulated adenylyl cyclase, read-out: pEC50 α2A (converted)) greater than 100000 nM, an Emax (human α2A adrenoceptor) of 0% and a Ki ([1]; read-out: pKi D5 (converted)) of 20 µM. It also gave a Ki (human 5-HT1A receptor) of 79.4 nM, a Ki (human 5-HT1Dβ receptor) of 0.02 µM and a Ki (human 5-HT1F receptor) of 100 nM. For the same compound, the “pKi D3” value [2] was 6.0.

Compound `COc1ccc(OC)c(C(O)CN)c1` (racemic) [ST-1059, (±)-2-Amino-1-(2, 5 dimethoxyphenyl) ethanol] has an EC50 (human α2A adrenoceptor) of 2510 nM and an Emax (human α2A adrenoceptor) of 20%.

For `CNCCc1ccc(O)c(NS(C)(=O)=O)c1` [SK&F 102652], the “pEC50 α2A” value (human α2A adrenoceptor; agonist, inhibition of forskolin stimulated adenylyl cyclase) was less than 4.0, the Emax (human α2A adrenoceptor) was 0% and the “pKi D5” value [1] was 4.8. For the same compound, the “pKi 5-HT1A” value (human 5-HT1A receptor; [3H]-8-OH-DPAT) was 5.8, the “pKi 5-HT1Dβ” value (human 5-HT1Dβ receptor; [3H]serotonin) was 5.5 and the “pKi 5-HT1F” value (human 5-HT1F receptor; [3H]serotonin) was 5.3. The “pKi D3” value [2] was 6.7.

Work on `CN[C@@H](C)[C@H](O)c1ccccc1` [(-)-ephedrine] yielded an EC50 (human α2A adrenoceptor) of 251 nM and an Emax (human α2A adrenoceptor) of 30%.

`CS(=O)(=O)Nc1c(O)ccc2c1CCCC2C1=NCCN1` (racemic) [Compound A-61603, (±)-N-[5-(4,5-Dihydro-1H-imidazol-2-yl)-2-hydroxy-5,6,7,8-tetra-hydronaphthalen-1-yl]methanesulfonamide] was tested, and the Ki [1] was 15.8 µM, the Ki (human 5-HT1A receptor; [3H]-8-OH-DPAT, read-out: pKi 5-HT1A (converted)) was 3980 nM and the Ki (human 5-HT1Dβ receptor; [3H]serotonin, read-out: pKi 5-HT1Dβ (converted)) was 6.31 µM. The Ki (human 5-HT1F receptor; [3H]serotonin, read-out: pKi 5-HT1F (converted)) was 5010 nM and the “pKi D3” value [2] was 5.8.

`C[C@H](N)[C@H](O)c1ccccc1` [(-)-norephedrine] showed an EC50 (human α2A adrenoceptor) of 7.94 nM and an Emax (human α2A adrenoceptor) of 50%.
